From ChEMBL document CHEMBL3098003, “Structure-based design of 2-aminopyridine oxazolidinones as potent and selective tankyrase inhibitors” (ACS Med Chem Lett, 2013)

Legend:
[1] = target: Beta-1 adrenergic receptor (Homo sapiens, UniProt P08588); assay: Binding affinity to adrenergic beta1 receptor (unknown origin)
[2] = target: D(2) dopamine receptor (Homo sapiens, UniProt P14416); assay: Binding affinity to dopamine D2 receptor (unknown origin)
[3] = target: 5-hydroxytryptamine receptor 1A (Homo sapiens, UniProt P08908); assay: Binding affinity to 5-HT1A receptor (unknown origin)
[4] = target: T1, Tankyrase 1/2 (Homo sapiens, UniProt Q9H2K2+O95271); assay: Inhibition of tankyrase in human SW480 cells assessed as axin2 accumulation after 24 hrs by Hoechst dye-based assay; assay type: cell-based
T1 sequence (Q9H2K2 whole entry): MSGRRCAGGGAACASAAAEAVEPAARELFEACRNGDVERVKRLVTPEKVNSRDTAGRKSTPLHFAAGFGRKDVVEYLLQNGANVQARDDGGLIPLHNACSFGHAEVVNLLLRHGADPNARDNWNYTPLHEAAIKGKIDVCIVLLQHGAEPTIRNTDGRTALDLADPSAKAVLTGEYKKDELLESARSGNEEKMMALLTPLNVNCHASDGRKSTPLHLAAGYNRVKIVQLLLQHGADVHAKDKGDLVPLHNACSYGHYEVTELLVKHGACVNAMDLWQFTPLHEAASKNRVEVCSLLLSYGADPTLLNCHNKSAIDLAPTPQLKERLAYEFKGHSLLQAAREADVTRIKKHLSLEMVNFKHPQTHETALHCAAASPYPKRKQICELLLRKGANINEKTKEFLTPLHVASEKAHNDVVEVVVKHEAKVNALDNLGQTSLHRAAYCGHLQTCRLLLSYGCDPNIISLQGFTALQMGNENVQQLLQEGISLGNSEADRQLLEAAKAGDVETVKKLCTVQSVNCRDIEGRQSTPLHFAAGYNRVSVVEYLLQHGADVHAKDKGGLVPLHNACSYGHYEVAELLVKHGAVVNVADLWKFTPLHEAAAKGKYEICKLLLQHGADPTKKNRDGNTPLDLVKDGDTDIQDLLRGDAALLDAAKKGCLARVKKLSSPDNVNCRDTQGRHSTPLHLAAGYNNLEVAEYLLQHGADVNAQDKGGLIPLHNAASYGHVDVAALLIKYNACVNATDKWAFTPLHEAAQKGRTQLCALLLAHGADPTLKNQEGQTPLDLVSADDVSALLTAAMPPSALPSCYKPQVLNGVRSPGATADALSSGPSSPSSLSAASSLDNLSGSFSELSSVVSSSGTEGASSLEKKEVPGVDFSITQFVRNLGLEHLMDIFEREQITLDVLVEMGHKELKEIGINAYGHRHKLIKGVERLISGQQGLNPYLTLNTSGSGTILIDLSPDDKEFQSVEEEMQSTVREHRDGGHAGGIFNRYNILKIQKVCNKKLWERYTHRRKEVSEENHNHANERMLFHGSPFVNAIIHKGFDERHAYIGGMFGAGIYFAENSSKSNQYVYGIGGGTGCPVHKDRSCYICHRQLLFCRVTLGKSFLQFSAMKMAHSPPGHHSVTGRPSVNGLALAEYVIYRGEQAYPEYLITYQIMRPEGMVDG
T1 sequence (O95271 whole entry): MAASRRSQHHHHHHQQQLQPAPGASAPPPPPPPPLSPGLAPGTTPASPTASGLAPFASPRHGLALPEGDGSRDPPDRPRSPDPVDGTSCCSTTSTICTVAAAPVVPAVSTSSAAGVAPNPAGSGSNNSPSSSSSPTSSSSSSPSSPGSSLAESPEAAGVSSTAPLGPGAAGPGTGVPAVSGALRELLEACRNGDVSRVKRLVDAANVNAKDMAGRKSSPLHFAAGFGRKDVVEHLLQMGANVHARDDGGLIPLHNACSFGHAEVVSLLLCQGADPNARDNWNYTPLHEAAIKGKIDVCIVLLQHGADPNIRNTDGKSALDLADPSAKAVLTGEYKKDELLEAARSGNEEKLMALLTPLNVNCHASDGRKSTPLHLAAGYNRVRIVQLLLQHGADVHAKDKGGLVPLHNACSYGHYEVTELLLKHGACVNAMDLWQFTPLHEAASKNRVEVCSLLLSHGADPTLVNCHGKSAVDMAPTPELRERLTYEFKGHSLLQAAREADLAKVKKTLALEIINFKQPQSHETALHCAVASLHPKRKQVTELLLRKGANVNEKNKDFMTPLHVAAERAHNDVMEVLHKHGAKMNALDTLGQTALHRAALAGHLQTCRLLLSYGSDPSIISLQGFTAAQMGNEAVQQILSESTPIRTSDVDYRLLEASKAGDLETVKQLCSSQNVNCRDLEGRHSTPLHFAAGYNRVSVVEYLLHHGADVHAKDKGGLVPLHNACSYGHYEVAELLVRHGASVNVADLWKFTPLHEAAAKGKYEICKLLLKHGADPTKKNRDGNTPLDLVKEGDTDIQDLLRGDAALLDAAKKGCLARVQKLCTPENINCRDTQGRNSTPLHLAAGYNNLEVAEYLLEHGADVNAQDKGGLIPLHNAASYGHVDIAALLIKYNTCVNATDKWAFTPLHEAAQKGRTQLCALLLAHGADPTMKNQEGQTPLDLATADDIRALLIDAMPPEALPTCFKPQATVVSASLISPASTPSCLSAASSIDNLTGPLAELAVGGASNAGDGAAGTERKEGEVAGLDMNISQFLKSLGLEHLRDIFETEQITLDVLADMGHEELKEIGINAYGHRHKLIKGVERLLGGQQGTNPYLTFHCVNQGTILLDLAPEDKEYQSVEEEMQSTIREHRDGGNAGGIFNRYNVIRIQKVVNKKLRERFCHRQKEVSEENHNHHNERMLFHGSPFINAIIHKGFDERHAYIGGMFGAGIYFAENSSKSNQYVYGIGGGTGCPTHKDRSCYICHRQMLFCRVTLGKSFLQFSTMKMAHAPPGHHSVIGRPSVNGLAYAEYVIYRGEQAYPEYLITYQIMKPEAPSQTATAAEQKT

Chain of D(2) dopamine receptor (P14416 whole entry): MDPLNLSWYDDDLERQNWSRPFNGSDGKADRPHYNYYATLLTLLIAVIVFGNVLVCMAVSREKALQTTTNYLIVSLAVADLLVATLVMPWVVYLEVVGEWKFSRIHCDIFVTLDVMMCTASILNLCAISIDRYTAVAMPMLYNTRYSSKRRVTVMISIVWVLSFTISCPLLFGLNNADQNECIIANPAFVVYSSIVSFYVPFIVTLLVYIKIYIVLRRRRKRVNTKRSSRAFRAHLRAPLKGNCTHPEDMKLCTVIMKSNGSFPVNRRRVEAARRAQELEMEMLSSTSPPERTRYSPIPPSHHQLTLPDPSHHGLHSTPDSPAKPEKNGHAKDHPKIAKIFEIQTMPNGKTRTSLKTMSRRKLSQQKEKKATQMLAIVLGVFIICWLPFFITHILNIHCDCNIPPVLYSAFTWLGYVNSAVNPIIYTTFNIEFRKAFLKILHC
Chain of Beta-1 adrenergic receptor (P08588 whole entry): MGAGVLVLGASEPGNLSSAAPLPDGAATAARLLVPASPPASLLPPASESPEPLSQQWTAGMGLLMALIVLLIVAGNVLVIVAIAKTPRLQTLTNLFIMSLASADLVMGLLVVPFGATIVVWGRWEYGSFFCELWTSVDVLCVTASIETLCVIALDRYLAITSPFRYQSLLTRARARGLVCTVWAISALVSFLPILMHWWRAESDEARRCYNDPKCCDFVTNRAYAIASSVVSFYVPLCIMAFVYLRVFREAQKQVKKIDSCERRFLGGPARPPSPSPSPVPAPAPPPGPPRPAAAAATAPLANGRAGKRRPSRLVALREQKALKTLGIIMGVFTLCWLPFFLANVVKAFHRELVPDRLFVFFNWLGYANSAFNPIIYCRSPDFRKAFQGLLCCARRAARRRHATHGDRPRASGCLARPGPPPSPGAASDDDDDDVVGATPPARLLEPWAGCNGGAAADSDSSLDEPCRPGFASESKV
Chain of 5-hydroxytryptamine receptor 1A (P08908 whole entry): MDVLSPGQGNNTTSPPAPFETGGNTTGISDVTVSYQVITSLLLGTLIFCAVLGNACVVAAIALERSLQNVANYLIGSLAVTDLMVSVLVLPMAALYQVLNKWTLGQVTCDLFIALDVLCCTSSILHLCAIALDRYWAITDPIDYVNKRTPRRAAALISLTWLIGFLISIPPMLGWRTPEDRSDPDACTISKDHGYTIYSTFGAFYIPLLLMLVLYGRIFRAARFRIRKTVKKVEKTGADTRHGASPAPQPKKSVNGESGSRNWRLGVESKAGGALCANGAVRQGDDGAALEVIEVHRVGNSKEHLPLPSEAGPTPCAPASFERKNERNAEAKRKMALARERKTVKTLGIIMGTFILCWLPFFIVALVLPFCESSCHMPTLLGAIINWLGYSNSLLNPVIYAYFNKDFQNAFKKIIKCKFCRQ

Row | Structure (SMILES) | IC50 [1] [µM] | IC50 [2] [µM] | IC50 [3] [µM] | EC50 [4] [µM]
1 | CC1(C)OC(=O)N([C@H]2CC[C@H](c3cnc(N)c(-c4ncccn4)c3)CC2)[C@H]1c1ccccc1 | > 48.5 | > 48.5 | > 48.5 | –
2 | CC1(C)OC(=O)N(c2ccc(-c3cnc(N)c(-c4ncccn4)c3)cc2)[C@H]1c1ccccc1 | – | – | – | 0.709
